Measurements: ChEMBL document CHEMBL4024712, “Synthesis, stability and mechanistic studies of potent anticryptococcal hexapeptides” (Eur J Med Chem, 2017)
Values after ≈ are worked out from the molar mass of the structure shown. Non-standard residues stand in square brackets, D forms with d. Residues, ends and D or L forms follow the SMILES beside them. His(τ-Bzl) = N[C@@H](Cc1cn(Cc2ccccc2)cn1)C(=O)O; Phe(4-Me) = Cc1ccc(C[C@H](N)C(=O)O)cc1; Cha = N[C@@H](CC1CCCCC1)C(=O)O; Phg = N[C@H](C(=O)O)c1ccccc1; Nle = CCCC[C@H](N)C(=O)O; Orn = NCCC[C@H](N)C(=O)O; Dab = NCC[C@H](N)C(=O)O

Columns and labels:
Cryptococcus neoformans [1] = test: Fungicidal activity against Cryptococcus neoformans ATCC 90113 after 68 to 72 hrs by Alamar blue assay; format: functional
Pichia kudriavzevii [2] = test: Fungicidal activity against Candida krusei ATCC 6258 after 18 to 24 hrs by Alamar blue assay; format: functional
Pichia kudriavzevii [3] = test: Antifungal activity against Candida krusei ATCC 6258 after 18 to 24 hrs by Alamar blue assay; format: functional
Cryptococcus neoformans [4] = test: Antifungal activity against Cryptococcus neoformans ATCC 90113 after 68 to 72 hrs by Alamar blue assay; format: functional
Pseudomonas aeruginosa = test: Anti-bacterial activity against Pseudomonas aeruginosa ATCC 27853 by CLSI method; format: functional
[5] = tested on: Mycobacterium intracellulare; test: Anti-bacterial activity against Mycobacterium intracellulare ATCC 23068 after 68 to 72 hrs by Alamar blue assay; format: functional, cell-based
Nakaseomyces glabratus = test: Antifungal activity against Candida glabrata ATCC 90030 after 18 to 24 hrs by Alamar blue assay; format: functional
Aspergillus fumigatus = test: Antifungal activity against Aspergillus fumigatus ATCC 90906 after 68 to 72 hrs by Alamar blue assay; format: functional
Candida albicans = test: Antifungal activity against Candida albicans ATCC 90028 after 18 to 24 hrs by Alamar blue assay; format: functional
Vero = test: Cytotoxicity against African green monkey Vero cells up to 10 ug/ml after 48 hrs by neutral red dye based assay; format: cell-based; conditions: chlorocebus sabaeus
Staphylococcus aureus = test: Anti-bacterial activity against Staphylococcus aureus ATCC 29213 by CLSI method; format: functional; conditions: Staphylococcus aureus, ATCC 29213
Escherichia coli = test: Anti-bacterial activity against Escherichia coli ATCC 35218 by CLSI method; format: functional

| SMILES | MIC (Cryptococcus neoformans [4]) [µg/mL] | IC50 (Pseudomonas aeruginosa) | MIC (Staphylococcus aureus) [µg/mL] | IC50 (Escherichia coli) | MIC ([5]; Mycobacterium intracellulare, ATCC 23068) [µg/mL] | MFC (Cryptococcus neoformans [1]) [µg/mL] | MFC (Pichia kudriavzevii [2]) [µg/mL] | MIC (Pichia kudriavzevii [3]; Pichia kudriavzevii, ATCC 6258) [µg/mL] | IC50 [5] | IC50 (Nakaseomyces glabratus) | IC50 (Aspergillus fumigatus) | IC50 (Pichia kudriavzevii [3]) | IC50 (Candida albicans) | Activity (Vero) | IC50 (Pichia kudriavzevii [3]; Pichia kudriavzevii, ATCC 6258, read-out: IC50) [µg/mL] | IC50 ([5]; Mycobacterium intracellulare, ATCC 23068, read-out: IC50) [µg/mL] |
| --- | --- | --- | --- | --- | --- | --- | --- | --- | --- | --- | --- | --- | --- | --- | --- | --- |
| Cc1ccc(C[C@H](NC(=O)[C@@H](Cc2ccccc2)NC(=O)[C@@H](Cc2c[nH]c3ccccc23)NC(=O)[C@@H](N)CCCN)C(=O)N[C@H](Cc2ccccc2)C(=O)N[C@@H](CCN)C(N)=O)cc1 (H-[Orn][dW][dF][Phe(4-Me)][dF][Dab]-NH2) | 1.25 (≈ 1.43 µM) |  |  |  |  | 1.25 (≈ 1.43 µM) | 20 (≈ 22.9 µM) | 20 (≈ 22.9 µM) |  |  |  |  |  |  |  |  |
| CC[C@H](C)[C@H](NC(=O)[C@H](CC1CCCCC1)NC(=O)[C@H](CC(C)C)NC(=O)[C@@H](N)CCCN)C(=O)N[C@H](Cc1ccccc1)C(=O)N[C@@H](Cc1cn(Cc2ccccc2)cn1)C(N)=O (H-[Orn]L[Cha]I[dF][His(τ-Bzl)]-NH2) |  | Not Active |  |  |  | 2.5 (≈ 2.82 µM) |  |  | Not Active | Not Active | Not Active | Not Active | Not Active | Non-Toxic |  |  |
| CC[C@H](C)[C@H](NC(=O)[C@H](CC1CCCCC1)NC(=O)[C@@H]1CCCN1C(=O)[C@@H](N)CCCN)C(=O)N[C@H](Cc1ccccc1)C(=O)N[C@@H](Cc1cn(Cc2ccccc2)cn1)C(N)=O (H-[Orn]P[Cha]I[dF][His(τ-Bzl)]-NH2) |  | Not Active |  |  |  | 2.5 (≈ 2.88 µM) |  |  | Not Active | Not Active | Not Active | Not Active | Not Active | Non-Toxic |  |  |
| CC(C)C[C@@H](NC(=O)[C@H](CC1CCCCC1)NC(=O)[C@@H](Cc1c[nH]c2ccccc12)NC(=O)[C@@H](N)CCCN)C(=O)N[C@H](Cc1ccccc1)C(=O)N[C@@H](Cc1cn(Cc2ccccc2)cn1)C(N)=O (H-[Orn][dW][Cha][dL][dF][His(τ-Bzl)]-NH2) | 2.5 (≈ 2.61 µM) | Not Active | 20 (≈ 20.9 µM) | Not Active |  |  |  |  |  | Not Active | Not Active |  | Not Active | Non-Toxic | 20 (≈ 20.9 µM) |  |
| CC[C@H](C)[C@H](NC(=O)[C@H](CC1CCCCC1)NC(=O)[C@H]1CCCN1C(=O)[C@@H](N)CCCN)C(=O)N[C@H](Cc1ccccc1)C(=O)N[C@@H](Cc1cn(Cc2ccccc2)cn1)C(N)=O (H-[Orn][dP][Cha]I[dF][His(τ-Bzl)]-NH2) | 2.5 (≈ 2.88 µM) | Not Active |  |  |  | 2.5 (≈ 2.88 µM) |  |  | Not Active | Not Active | Not Active | Not Active | Not Active | Non-Toxic |  |  |
| Cc1ccc(C[C@H](NC(=O)[C@@H](Cc2ccccc2)NC(=O)[C@@H](Cc2c[nH]c3ccccc23)NC(=O)[C@@H](N)CCN)C(=O)N[C@H](Cc2ccccc2)C(=O)N[C@@H](Cc2cn(Cc3ccccc3)cn2)C(N)=O)cc1 (H-[Dab][dW][dF][Phe(4-Me)][dF][His(τ-Bzl)]-NH2) |  | Not Active |  | Not Active |  |  |  |  | Not Active | Not Active | Not Active |  | Not Active | Non-Toxic |  |  |
| CC(C)[C@H](NC(=O)[C@H](CC1CCCCC1)NC(=O)[C@@H](Cc1c[nH]c2ccccc12)NC(=O)[C@@H](N)CCCN)C(=O)N[C@H](Cc1ccccc1)C(=O)N[C@@H](Cc1cn(Cc2ccccc2)cn1)C(N)=O (H-[Orn][dW][Cha]V[dF][His(τ-Bzl)]-NH2) | 1.25 (≈ 1.32 µM) | Not Active |  | Not Active |  | 1.25 (≈ 1.32 µM) |  |  |  | Not Active | Not Active | Not Active | Not Active | Non-Toxic |  |  |
| CCCC[C@H](NC(=O)[C@@H](N)CCCN)C(=O)N[C@@H](CC1CCCCC1)C(=O)N[C@H](C(=O)N[C@H](Cc1ccccc1)C(=O)N[C@@H](Cc1cn(Cc2ccccc2)cn1)C(N)=O)[C@@H](C)CC (H-[Orn][Nle][Cha]I[dF][His(τ-Bzl)]-NH2) |  | Not Active |  |  |  | 2.5 (≈ 2.82 µM) |  |  | Not Active | Not Active | Not Active | Not Active | Not Active | Non-Toxic |  |  |
| O=C(O)c1cn(C2CC2)c2cc(N3CCNCC3)c(F)cc2c1=O [CIPROFLOXACIN] |  |  |  |  |  |  |  |  |  |  |  |  |  |  |  | 0.47 (≈ 1.42 µM) |

Second part, led by results:

| MIC (Cryptococcus neoformans [4]) [µg/mL] | IC50 (Pseudomonas aeruginosa) | MIC (Staphylococcus aureus) [µg/mL] | IC50 (Escherichia coli) | MIC ([5]; Mycobacterium intracellulare, ATCC 23068) [µg/mL] | SMILES | MFC (Cryptococcus neoformans [1]) [µg/mL] | MFC (Pichia kudriavzevii [2]) [µg/mL] | MIC (Pichia kudriavzevii [3]; Pichia kudriavzevii, ATCC 6258) [µg/mL] | IC50 [5] | IC50 (Nakaseomyces glabratus) | IC50 (Aspergillus fumigatus) | IC50 (Pichia kudriavzevii [3]) | IC50 (Candida albicans) | Activity (Vero) | IC50 (Pichia kudriavzevii [3]; Pichia kudriavzevii, ATCC 6258, read-out: IC50) [µg/mL] | IC50 ([5]; Mycobacterium intracellulare, ATCC 23068, read-out: IC50) [µg/mL] |
| --- | --- | --- | --- | --- | --- | --- | --- | --- | --- | --- | --- | --- | --- | --- | --- | --- |
|  | Not Active |  |  |  | CC[C@H](C)[C@H](NC(=O)[C@H](CC1CCCCC1)NC(=O)[C@@H](NC(=O)[C@@H](N)CCCN)c1ccccc1)C(=O)N[C@H](Cc1ccccc1)C(=O)N[C@@H](Cc1cn(Cc2ccccc2)cn1)C(N)=O (H-[Orn][Phg][Cha]I[dF][His(τ-Bzl)]-NH2) |  |  |  | Not Active | Not Active | Not Active | Not Active | Not Active | Non-Toxic |  |  |
| 2.5 (≈ 2.72 µM) | Not Active |  |  |  | CC[C@H](C)[C@H](NC(=O)[C@H](CC1CCCCC1)NC(=O)[C@H](Cc1ccccc1)NC(=O)[C@@H](N)CCCN)C(=O)N[C@H](Cc1ccccc1)C(=O)N[C@@H](Cc1cn(Cc2ccccc2)cn1)C(N)=O (H-[Orn]F[Cha]I[dF][His(τ-Bzl)]-NH2) |  |  |  | Not Active | Not Active | Not Active | Not Active | Not Active | Non-Toxic |  |  |
| 1.25 (≈ 1.41 µM) | Not Active |  |  | 20 (≈ 22.6 µM) | CC[C@H](C)[C@H](NC(=O)[C@H](CC1CCCCC1)NC(=O)[C@@H](CC(C)C)NC(=O)[C@@H](N)CCCN)C(=O)N[C@H](Cc1ccccc1)C(=O)N[C@@H](Cc1cn(Cc2ccccc2)cn1)C(N)=O (H-[Orn][dL][Cha]I[dF][His(τ-Bzl)]-NH2) |  |  |  |  | Not Active | Not Active | Not Active | Not Active | Non-Toxic |  |  |
|  | Not Active |  |  |  | CC[C@@H](C)[C@@H](NC(=O)[C@H](CC1CCCCC1)NC(=O)[C@@H](Cc1c[nH]c2ccccc12)NC(=O)[C@@H](N)CCCN)C(=O)N[C@H](Cc1ccccc1)C(=O)N[C@@H](Cc1cn(Cc2ccccc2)cn1)C(N)=O (H-[Orn][dW][Cha][dI][dF][His(τ-Bzl)]-NH2) |  |  |  |  | Not Active | Not Active |  |  | Non-Toxic |  |  |
|  | Not Active |  |  |  | CC[C@H](C)[C@H](NC(=O)[C@H](CC1CCCCC1)NC(=O)[C@@H](Cc1ccccc1)NC(=O)[C@@H](N)CCCN)C(=O)N[C@H](Cc1ccccc1)C(=O)N[C@@H](Cc1cn(Cc2ccccc2)cn1)C(N)=O (H-[Orn][dF][Cha]I[dF][His(τ-Bzl)]-NH2) | 1.25 (≈ 1.36 µM) |  |  |  | Not Active | Not Active | Not Active | Not Active | Non-Toxic |  |  |
